In publication PMC5493921 (Royal Society Open Science, 2017):

Experiments:
ZfGBA1 = biological target: T1, ZfGBA1 (Zygaena filipendulae, UniProt A0A1W1EGM7); assay type: cell-based
T1 construct: expressed with and without (*) predicted native N-terminal signal peptide; retained in cells

ZfBGD2 = biological target: T2, ZfBGD2 (Zygaena filipendulae, UniProt A0A1W1EGN8); assay type: cell-based
T2 construct: expressed with and without (*) predicted native N-terminal signal peptide; retained in cells
T2 sequence (A0A1W1EGN8 19-524 limits assumed): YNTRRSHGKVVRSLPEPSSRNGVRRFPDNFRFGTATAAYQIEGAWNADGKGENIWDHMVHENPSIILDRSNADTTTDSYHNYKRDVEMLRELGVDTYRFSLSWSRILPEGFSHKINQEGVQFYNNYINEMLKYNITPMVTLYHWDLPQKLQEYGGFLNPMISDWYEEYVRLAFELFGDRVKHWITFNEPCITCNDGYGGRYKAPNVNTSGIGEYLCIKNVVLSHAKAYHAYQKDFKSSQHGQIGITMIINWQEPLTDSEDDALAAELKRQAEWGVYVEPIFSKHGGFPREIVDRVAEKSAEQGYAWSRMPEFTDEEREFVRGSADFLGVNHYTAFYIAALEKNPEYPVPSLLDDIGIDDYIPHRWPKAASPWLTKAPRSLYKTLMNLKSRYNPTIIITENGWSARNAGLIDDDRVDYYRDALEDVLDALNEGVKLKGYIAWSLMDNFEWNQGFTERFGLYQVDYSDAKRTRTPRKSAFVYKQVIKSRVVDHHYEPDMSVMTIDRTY

T1 sequence (A0A1W1EGM7 entry or part of it): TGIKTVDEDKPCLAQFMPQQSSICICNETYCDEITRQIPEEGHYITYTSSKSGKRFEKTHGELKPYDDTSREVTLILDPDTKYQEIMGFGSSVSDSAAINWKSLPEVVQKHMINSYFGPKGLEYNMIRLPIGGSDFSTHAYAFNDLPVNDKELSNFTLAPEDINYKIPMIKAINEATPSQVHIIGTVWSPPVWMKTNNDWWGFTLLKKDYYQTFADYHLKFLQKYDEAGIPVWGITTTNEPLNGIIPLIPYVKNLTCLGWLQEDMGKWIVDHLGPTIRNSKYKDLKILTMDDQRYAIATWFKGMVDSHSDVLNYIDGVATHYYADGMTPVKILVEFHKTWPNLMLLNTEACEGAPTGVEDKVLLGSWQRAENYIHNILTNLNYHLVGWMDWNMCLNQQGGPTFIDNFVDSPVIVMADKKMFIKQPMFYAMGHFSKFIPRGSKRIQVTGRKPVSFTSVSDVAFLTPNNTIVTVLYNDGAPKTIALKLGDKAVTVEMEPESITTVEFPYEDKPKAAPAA

Compound	HCN release from re-suspended Sf9 cells, Feigl-Anger paper and colorimetric (ZfGBA1)	HCN release from re-suspended Sf9 cells, Feigl-Anger paper and colorimetric (ZfBGD2)
CC[C@](C)(C#N)O[C@@H]1O[C@H](CO)[C@@H](O)[C@H](O)[C@H]1O [lot, lotaustralin]	ZfBGD2 and ZfGBA1 also hydrolysed linamarin and lotaustralin	ZfBGD2 and ZfGBA1 also hydrolysed linamarin and lotaustralin
CC(C)(C#N)O[C@@H]1O[C@H](CO)[C@@H](O)[C@H](O)[C@H]1O [lin, linamarin]	ZfBGD2 and ZfGBA1 also hydrolysed linamarin and lotaustralin	ZfBGD2 and ZfGBA1 also hydrolysed linamarin and lotaustralin
